Ends that are not written are not given here.
How the values were obtained:
BRCA1-IRIS and survivin = assay: IHC of MDA-MB-468 tumors for BRCA1-IRIS and survivin; format: in vivo, mice; conditions: MDA-MB-468 tumors after treatment
From the text: To study that on the molecular level, sections from these tumors were stained with H&E or for BRCA1-IRIS or survivin using immunohistochemistry. […] Accordingly, it is proposed that inactivating BRCA1-IRIS in TNBC patients might sensitize to lower paclitaxel concentrations to avoid the adverse side effects and also to prevent the recurrence of these tumors at a later point.
Immunohistochemistry (IHC). Breast tissue microarrays comprised of normal, DCIS, invasive and metastatic were purchased from US Biomax, Inc. Paraffin embedded tissue sections were de-waxed in xylene and rehydrated in alcohol. Antigen-retrieval: for FOXO3a and survivin was by heating the slides in citrate buffer (10 μM, pH 6.0) using microwave (Power level 4) for 10 minutes, for BRCA1-IRIS by incubating slides in pepsin (10 μM) for 20 min at 37° C. Endogenous peroxidase activity was suppressed by treating the slides with 3% H2O2 for 10 min. Slides were then incubated for 1 hour at room temperature with antibodies to human FOXO3a or survivin (Cell Signaling Technology, USA 1:400), or overnight at 4° C. with monoclonal anti-human BRCA1-IRIS (1:75). Vectastain Elite ABC Kit was used to develop the staining using horseradish peroxidase labeled secondary antibodies (1 hour at room temperature).

SKOV3 cells [1] = assay: Three-dimensional (3D) growth / acini formation in matrigel, SKOV3; format: cell-based, human
[2] = tested on: HME, HME/IRIS, MDA-MB-231, MDA-MB-468 and BT549 cells; assay: Survival of breast cell lines with IRIS peptide, paclitaxel or both; format: cell-based, human; conditions: all cell lines; IRIS peptide alone, 0.5 μM (HME) or 5 μM (others), 24 hours
Method: To investigate whether inactivating BRCA1-IRIS could sensitize TNBC to paclitaxel-induced cell death, HME cells were exposed to 0.5 μM, while HME/IRIS, MDA-MB-231, MDA-MB-468 and BT549 cells were exposed to 5 μM of IRIS peptide alone or with 5, 10 or 20 μM of paclitaxel for 24 hours. […] Again, IRIS peptide alone at these concentrations led to 50% reduction in survival of all cell lines. […] Indeed, in the presence of IRIS peptide >60%, >70% and >90% reduction in the survival of all cell lines in the presence of 5, 10 and 20 μM of paclitaxel, respectively (FIG. 84).
Cell viability measurement. Cell viability under different experimental conditions was determined using the MTS assay. Briefly, cells (2.5×10^4 cells per well) were seeded in 96-well plates and incubated overnight at 37° C. in 10% humidified CO2 atmosphere. The next day they were incubated with varying concentration of peptide, or inhibitors for 24 hours at 37° C. Cell viability was determined using cell Titer 96® Aqueous (Promega, Madison, Wis., USA) following manufacturer's instructions. Cell viability (%) was expressed as a ratio of treated cells to control cells×100. Growth inhibition was also determined by manually counting cells in five different microscopic fields. Change in cell numbers (fold) was expressed as a ratio of the means of these recording of treated cells compared to control cells×100. Each experiment was done in triplicate, repeated three separate times.

HME cells = conditions: 48 h
Method: All cell lines were exposed to increasing concentrations of paclitaxel and BRCA1-IRIS expression, and cells' viability was then measured.
Cell viability measurement. Cell viability under different experimental conditions was determined using the MTS assay. Briefly, cells (2.5×10^4 cells per well) were seeded in 96-well plates and incubated overnight at 37° C. in 10% humidified CO2 atmosphere. The next day they were incubated with varying concentration of peptide, or inhibitors for 24 hours at 37° C. Cell viability was determined using cell Titer 96® Aqueous (Promega, Madison, Wis., USA) following manufacturer's instructions. Cell viability (%) was expressed as a ratio of treated cells to control cells×100. […] Each experiment was done in triplicate, repeated three separate times.

SKOV3 cells [3] = assay: Tumor-sphere forming assay, SKOV3; format: cell-based, human; conditions: SKOV3, ultra-low binding dishes, two weeks; IRIS peptide 5 μM every third day
Method: Tumor-sphere: SKOV3 cells treated with scrambled or IRIS peptide (5 μM, added every third day) or expressing BRCA1-IRIS shRNA were grown in ultra-low binding culture dishes as single cells. […] BRCA1-IRIS silencing led to ˜7 fold decrease in tumor-sphere number (FIG. 43) and diameter (FIG. 43, inset), and an even more pronounced effect was detected with IRIS peptide (FIG. 43, and inset).
Tumor-sphere forming assay. Subconfluent monolayer cells were trypsinized and dissociated thoroughly to prepare single cell suspension. 1000 cells were plated, per well, onto ultra-low attachment 6-well plates (Corning Life Sciences, Union City, Calif.) in Dulbecco's modified Eagle's medium (DMEM)/F12 supplemented with 10% FBS, 2% B27 (Invitrogen), 10 ng/ml basic-fibroblast growth factor and 10 ng/mL epidermal growth factor. Cells were then incubated at 37° C. in humidified air with 10% CO2. 500 μl of medium was added to each well every 3 days, the medium containing the scrambled or IRIS peptide. […]

HOSE and HOSE/IRIS cells = assay: Survival of HOSE versus HOSE/IRIS cells; format: cell-based, human; conditions: pre-treatment with 5 μM of IRIS peptide
Method: To test that, HOSE or HOSE/IRIS cells were incubated for 24 hours with 10 μM of ErbB2 (CP-724714), EGFR (Erlotinib), TrkB (K252a), JNK (SP600125), p38 (SB203580), ERK (PD98059) and PI3′K/AKT (LY294002) inhibitors. […] Taken together, BRCA1-IRIS overexpression activates AKT and ERK, thereby inactivating FOXO3a and promoting Cyclin D1, survivin, Bcl-2 and NF-κB expression and suppressing p27 expression (FIG. 15).
HOSE cells overexpressing IRIS show a higher degree of resistance to cisplatin than HOSE cells (compare blue to black line in FIG. 30).
Cell viability measurement. Cell viability under different experimental conditions was determined using the MTS assay […]. Briefly, SKOV3, OVACAR3, HOSE and HOSE/IRIS cells (2.5×10^4 cells per well) were seeded in 96 well plates and incubated overnight at 37° C. in 10% humidified CO2 atmosphere in varying concentrations of IRIS peptide, or inhibitors of ErbB2 (CP-724714), EGFR (Erlotinib), TrkB (K252a), JNK (SP600125), p38 (SB203580), ERK (PD98059) and PI3′K/AKT (LY294002) inhibitors for 24 hours at 37° C. Cell Titer 96® Aqueous (Promega, Madison, Wis., USA) was used to measure viability following manufactures instructions. Cell viability (%) was expressed as a ratio to control cells×100. Growth inhibition was also determined by manually counting cells in five different microscopic fields. Change in cell numbers (fold) was expressed as a ratio to control cells×100. All experiments were done in at least triplicates, three different times. * is p≦0.05, ** is p≦0.001 and *** is p≦0.0001.

Sequence: RRIRPRPPRLPRPRPRPLPFPRPGIGTRFLCLPQSIYRSELNVYAFGEHILQISKYS [IRIS peptide]
- BRCA1-IRIS and survivin expression in tumors (IHC) (BRCA1-IRIS and survivin): almost completely absent
- decrease in ability to form invasive structures in matrigel (SKOV3 cells [1]; SKOV3 cells): > 500 fold
- acini phenotype (SKOV3 cells [1]; SKOV3 in matrigel, day 10, peptide added every third day): slightly bigger/organized/round acini
- reduction in survival [2]: 50%
- IC50 (HME cells): ~500 nM
- tumor-sphere formation (SKOV3 cells [3]): formed no tumor-spheres
- effect on survival (HOSE and HOSE/IRIS cells): decreased survival of HOSE and HOSE/IRIS cells
- sensitization to cisplatin (HOSE and HOSE/IRIS cells; then cisplatin): sensitized HOSE and HOSE/IRIS cells to low concentrations of cisplatin

Reference: US9303069B2, “Peptides for treating cancer” (University of Mississippi Medical Center, priority 2014, dated 2016)
